This note sets out measurements from the supplement of paper PMC10307832.

Assay in all cases: relative viability (nuclei count vs DMSO), 5 days (fraction); higher = more cells survive
Compound in assay [1]: CN(C)C/C=C/C(=O)Nc1cc2c(Nc3ccc(F)c(Cl)c3)ncnc2cc1O[C@H]1CCOC1 [Afatinib] + C[C@]1(O)C[C@@H](c2nc(-c3ccc4ccc(-c5ccccc5)nc4c3)c3c(N)nccn32)C1 [Linsitinib] (partner 1 µM)
The essentials: (§1)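 Relative viability divides the nuclei count in treated wells by that in vehicle wells. Lung cancer cell lines were seeded in 1536-well plates, dosed by pin tool the next day, and fixed and stained after 5 days in one step with final 0.05% Triton X-100, 1% formaldehyde and 1 ug/ml Hoechst. Dosing was a single drug or a fixed anchor-drug dose plus five library-drug doses (not always all listed) in √10 steps, and values are medians of duplicate plates imaged at 4×.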

Compound in assay [2]: CN(C)C/C=C/C(=O)Nc1cc2c(Nc3ccc(F)c(Cl)c3)ncnc2cc1O[C@H]1CCOC1 [Afatinib] + C[C@@H](Oc1cc(-c2cnn(C3CCNCC3)c2)cnc1N)c1c(Cl)ccc(F)c1Cl [Crizotinib] (partner 1 µM)
Summed up: as §1

Compound in assay [3]: CN(C)C/C=C/C(=O)Nc1cc2c(Nc3ccc(F)c(Cl)c3)ncnc2cc1O[C@H]1CCOC1 [Afatinib] + Cc1cc(Nc2cc(N3CCN(C)CC3)nc(Sc3ccc(NC(=O)C4CC4)cc3)n2)n[nH]1 [Tozasertib] (partner 0.1 µM)
Summed up:
as §1

Compound in assay [4]: CN(C)C/C=C/C(=O)Nc1cc2c(Nc3ccc(F)c(Cl)c3)ncnc2cc1O[C@H]1CCOC1 [Afatinib] + COc1cccc2cc(-c3nc([C@H]4CC[C@H](C(=O)O)CC4)n4ncnc(N)c34)[nH]c12 [OSI-027] (partner 0.5 µM)
Summed up: as §1

Turning to NCI-H1755, the relative viability in assay [1] (first compound 0.005 µM) was determined as 0.979; in assay [1] (first compound 0.01581 µM), 0.992; in assay [1] (first compound 0.05 µM) it was 0.997; in assay [1] (first compound 0.1581 µM), 0.938; in assay [1] (first compound 0.5 µM), 0.995; in assay [2] (first compound 0.005 µM), 0.894. Further, the relative viability in assay [2] (first compound 0.01581 µM) worked out at 0.869; in assay [2] (first compound 0.05 µM) it was 0.848; in assay [2] (first compound 0.1581 µM) it was 0.852; in assay [2] (first compound 0.5 µM), 0.868; in assay [3] (first compound 0.005 µM) it was 0.522; in assay [3] (first compound 0.01581 µM), 0.499. Moreover, the relative viability in assay [3] (first compound 0.05 µM) is 0.59; in assay [3] (first compound 0.1581 µM), 0.554; in assay [3] (first compound 0.5 µM), 0.566; in assay [4] (first compound 0.005 µM), 0.736; in assay [4] (first compound 0.01581 µM), 0.754; in assay [4] (first compound 0.05 µM), 0.845. The results for the relative viability in assay [4] (first compound 0.1581 µM) and in assay [4] (first compound 0.5 µM) were 0.627 and 0.668, respectively.

For the cell line NCI-H2228, the relative viability in assay [1] (first compound 0.005 µM) was 0.604; in assay [1] (first compound 0.01581 µM), 0.778; in assay [1] (first compound 0.05 µM) it was 0.631; in assay [1] (first compound 0.5 µM) it was 0.502; in assay [2] (first compound 0.005 µM), 0.455; in assay [2] (first compound 0.01581 µM) it was 0.46. In addition, the relative viability in assay [2] (first compound 0.05 µM) was found to be 0.345; in assay [2] (first compound 0.5 µM), 0.34; in assay [3] (first compound 0.005 µM), 0.271; in assay [3] (first compound 0.01581 µM), 0.259; in assay [3] (first compound 0.05 µM), 0.217; in assay [3] (first compound 0.1581 µM), 0.191. Also, the relative viability in assay [3] (first compound 0.5 µM) is 0.205; in assay [4] (first compound 0.005 µM), 0.546; in assay [4] (first compound 0.01581 µM), 0.418; in assay [4] (first compound 0.05 µM), 0.589; in assay [4] (first compound 0.1581 µM) it was 0.638; in assay [4] (first compound 0.5 µM), 0.545.

As to NCI-H2087, the relative viability was 0.985 in assay [1] (first compound 0.005 µM); 0.916 in assay [1] (first compound 0.01581 µM); 1.01 in assay [1] (first compound 0.05 µM); 0.918 in assay [1] (first compound 0.1581 µM); 0.986 in assay [1] (first compound 0.5 µM); 0.985 in assay [2] (first compound 0.005 µM). The relative viability in assay [2] (first compound 0.01581 µM) was 0.933; in assay [2] (first compound 0.05 µM) it was 0.93; in assay [2] (first compound 0.1581 µM), 0.845; in assay [2] (first compound 0.5 µM), 1.02; in assay [3] (first compound 0.005 µM), 0.232; in assay [3] (first compound 0.01581 µM), 0.25. In addition, the relative viability in assay [3] (first compound 0.05 µM) amounted to 0.267; in assay [3] (first compound 0.1581 µM), 0.229; in assay [3] (first compound 0.5 µM), 0.202; in assay [4] (first compound 0.005 µM), 0.731; in assay [4] (first compound 0.01581 µM), 0.507; in assay [4] (first compound 0.05 µM), 0.652. Further, the results for the relative viability in assay [4] (first compound 0.1581 µM) and in assay [4] (first compound 0.5 µM) were 0.753 and 0.383, respectively.

Regarding LU99A, the relative viability in assay [1] (first compound 0.005 µM) is 0.509; in assay [1] (first compound 0.01581 µM), 0.562; in assay [1] (first compound 0.05 µM), 0.488; in assay [1] (first compound 0.1581 µM), 0.453; in assay [1] (first compound 0.5 µM), 0.477; in assay [2] (first compound 0.005 µM), 0.591. Moreover, the relative viability turned out to be 0.54 in assay [2] (first compound 0.01581 µM); 0.539 in assay [2] (first compound 0.05 µM); 0.55 in assay [2] (first compound 0.1581 µM); 0.525 in assay [2] (first compound 0.5 µM); 0.275 in assay [3] (first compound 0.005 µM); 0.273 in assay [3] (first compound 0.01581 µM). Besides, the relative viability came to 0.256 in assay [3] (first compound 0.05 µM); 0.254 in assay [3] (first compound 0.1581 µM); 0.231 in assay [3] (first compound 0.5 µM); 0.294 in assay [4] (first compound 0.005 µM); 0.297 in assay [4] (first compound 0.01581 µM); 0.295 in assay [4] (first compound 0.05 µM). Also, the figures for the relative viability in assay [4] (first compound 0.1581 µM) and in assay [4] (first compound 0.5 µM) were 0.287 and 0.292, respectively.

Consider NCI-H1355, for which the relative viability in assay [1] (first compound 0.005 µM) was 0.744; in assay [1] (first compound 0.01581 µM), 0.828; in assay [1] (first compound 0.05 µM) it was 0.728; in assay [1] (first compound 0.1581 µM), 0.586; in assay [1] (first compound 0.5 µM) it was 0.662; in assay [2] (first compound 0.005 µM) it was 1.16. The relative viability in assay [2] (first compound 0.01581 µM) stood at 0.983; in assay [2] (first compound 0.05 µM), 1.01; in assay [2] (first compound 0.1581 µM) it was 0.792; in assay [2] (first compound 0.5 µM), 0.816; in assay [3] (first compound 0.005 µM), 0.577; in assay [3] (first compound 0.01581 µM), 0.517. The relative viability in assay [3] (first compound 0.05 µM) was determined as 0.522; in assay [3] (first compound 0.1581 µM) it was 0.501; in assay [3] (first compound 0.5 µM), 0.464; in assay [4] (first compound 0.005 µM) it was 0.388; in assay [4] (first compound 0.01581 µM) it was 0.341; in assay [4] (first compound 0.05 µM), 0.348. Also, the relative viability in assay [4] (first compound 0.1581 µM) is 0.361; in assay [4] (first compound 0.5 µM) it was 0.276.

Consider NCI-H520, for which the relative viability in assay [1] (first compound 0.005 µM) turned out to be 0.983; in assay [1] (first compound 0.01581 µM), 0.998; in assay [1] (first compound 0.05 µM), 0.992; in assay [1] (first compound 0.1581 µM), 0.931; in assay [1] (first compound 0.5 µM), 0.802; in assay [2] (first compound 0.005 µM), 1.33. For the same cell line, the relative viability in assay [2] (first compound 0.01581 µM) was 0.851; in assay [2] (first compound 0.05 µM), 0.832; in assay [2] (first compound 0.1581 µM), 0.749; in assay [2] (first compound 0.5 µM), 0.737; in assay [3] (first compound 0.005 µM), 0.435; in assay [3] (first compound 0.01581 µM), 0.355. Also, the relative viability in assay [3] (first compound 0.05 µM) worked out at 0.462; in assay [3] (first compound 0.1581 µM) it was 0.342; in assay [3] (first compound 0.5 µM) it was 0.422; in assay [4] (first compound 0.005 µM) it was 0.357; in assay [4] (first compound 0.01581 µM), 0.198; in assay [4] (first compound 0.05 µM), 0.201. Further, the relative viability was 0.261 in assay [4] (first compound 0.1581 µM) and 0.234 in assay [4] (first compound 0.5 µM).

NCI-H661: the relative viability amounted to 0.669 in assay [1] (first compound 0.005 µM); 0.531 in assay [1] (first compound 0.01581 µM); 0.516 in assay [1] (first compound 0.05 µM); 0.375 in assay [1] (first compound 0.1581 µM); 0.294 in assay [1] (first compound 0.5 µM); 1.25 in assay [2] (first compound 0.005 µM). Further, the relative viability came to 1.03 in assay [2] (first compound 0.01581 µM); 0.996 in assay [2] (first compound 0.05 µM); 0.838 in assay [2] (first compound 0.1581 µM); 0.773 in assay [2] (first compound 0.5 µM); 0.34 in assay [3] (first compound 0.005 µM); 0.367 in assay [3] (first compound 0.01581 µM). Besides, the relative viability in assay [3] (first compound 0.05 µM) was 0.367; in assay [3] (first compound 0.1581 µM), 0.361; in assay [3] (first compound 0.5 µM) it was 0.377; in assay [4] (first compound 0.005 µM) it was 0.558; in assay [4] (first compound 0.01581 µM) it was 0.458; in assay [4] (first compound 0.05 µM) it was 0.528. Further, the relative viability came to 0.386 in assay [4] (first compound 0.1581 µM) and 0.367 in assay [4] (first compound 0.5 µM).
